Data reported in patent US11590129B2, “Combination therapy with an antitumor alkaloid” (PHARMA MAR, S.A., priority 2010, dated 2023).

Legend:
HT1080 tumors = test: Human fibrosarcoma (HT1080) orthotopically implanted in athymic nude mice, total diameter (tumor+leg) % T/C; assay type: in vivo
Description: (§1) Female athymic nude mice (Harlan Laboratories Models, S.L. (Barcelona, Spain) were utilized for all experiments. Animals were housed in individually ventilated cages, up to ten per cage in a 12-hour light-dark cycle at 21-23° C. and 40-60% humidity. The mice were allowed free access to irradiated standard rodent diet and sterilized water. Animals were acclimated for at least 5 days prior to tumor implantation with a tumor cell suspension.
HT1080 cells were grown at 37° C. with 5% CO2 in Minimum Essential Medium Eagle (MEME). Each animal was orthotopically implanted into gastroecnemius muscle by an intramuscular injection using 26G needle and a 1 cc syringe, with 5×10^6 HT1080 cells, from in vitro passage 9, suspended in serum free medium, without antibiotics.
Total diameter (tumor+leg) measurements were determined by using digital caliper (Fowler Sylvac, S235PAT). This total diameter and animal body weights were measured 2-3 times per week starting from the first day of treatment.
Treatment tolerability was assessed by monitoring body weight evolution, clinical signs as well as evidences of local damage in the injection site.
PM01183 was provided in the form of vials of lyophilized PM01183 cake which was reconstituted with water for infusion to a concentration of 0.2 mg/mL. The PM01183 stock solution was further diluted in 5% glucose solution for injection to the dosing formulation concentrations. Dacarbazine was provided in the form of a solution prepared by diluting the product with 5% glucose solution for injection to the target final concentration.
(§2) Dose level groups were administered either as single agents or in combination.
Comparison of the median total diameter (tumor+leg) in the treatment groups (T) to the median total diameter (tumor+leg) in the control group (T/C×100%) was used for evaluation of the antitumor efficacy.

HGC-27 tumors = test: Human gastric tumor xenografts (HGC-27) in athymic nude mice, tumor volume % T/C; assay type: in vivo
Description: as §1
HGC-27 cells were grown at 37° C. with 5% CO2 in Iscove's modified Dulbeco's medium (IDMD).
PM01183 was provided in the form of vials of lyophilized PM01183 cake which was reconstituted with water for infusion to a concentration of 0.2 mg/mL. The PM01183 stock solution was further diluted in 5% glucose solution for injection to the dosing formulation concentrations. Cisplatin and 5-fluorouracil were provided as solutions prepared by diluting the product with 0.9% saline solution for injection to the target final concentration.
as §2
Comparison of the median tumor volume in the treatment groups (T) to the median tumor volume in the control group (T/C×100%) was used for evaluation of the antitumor efficacy.

[1] = PM01183 0.135 mg/kg iv days 0,7
[2] = PM01183 0.045 mg/kg iv days 0,7, 5-fluorouracil study
[3] = PM01183 0.045 mg/kg iv days 0,7, cisplatin study
[4] = PM01183 0.09 mg/kg iv days 0,7, 5-fluorouracil study
[5] = PM01183 0.09 mg/kg iv days 0,7, cisplatin study
[6] = PM01183 0.135 mg/kg iv days 0,7, 5-fluorouracil study
[7] = PM01183 0.135 mg/kg iv days 0,7, cisplatin study
[8] = PM01183 0.18 mg/kg iv days 0,7, 5-fluorouracil study
[9] = PM01183 0.18 mg/kg iv days 0,7, cisplatin study

SMILES: COc1ccc2[nH]c3c(c2c1)CCN[C@]31CS[C@@H]2c3c(OC(C)=O)c(C)c4c(c3[C@H](COC1=O)N1[C@@H]2[C@H]2c3c(cc(C)c(OC)c3O)C[C@@H]([C@@H]1O)N2C)OCO4 [PM01183]
- % T/C on day 0 (HT1080 tumors; PM01183 0.045 mg/kg): 100%
- % T/C on day 2 (HT1080 tumors; PM01183 0.045 mg/kg): 77.8%
- % T/C on day 4 (HT1080 tumors; PM01183 0.045 mg/kg): 74.3%
- % T/C on day 7 (HT1080 tumors; PM01183 0.045 mg/kg): 94.2%
- % T/C on day 9 (HT1080 tumors; PM01183 0.045 mg/kg): 80.0%
- % T/C on day 11 (HT1080 tumors; PM01183 0.045 mg/kg): 74.0%
- % T/C on day 14 (HT1080 tumors; PM01183 0.045 mg/kg): 80.5%
- % T/C on day 16 (HT1080 tumors; PM01183 0.045 mg/kg): 91.1%
- % T/C on day 0 (HT1080 tumors; PM01183 0.09 mg/kg): 100%
- % T/C on day 2 (HT1080 tumors; PM01183 0.09 mg/kg): 66.7%
- % T/C on day 4 (HT1080 tumors; PM01183 0.09 mg/kg): 57.1%
- % T/C on day 7 (HT1080 tumors; PM01183 0.09 mg/kg): 65.4%
- % T/C on day 9 (HT1080 tumors; PM01183 0.09 mg/kg): 48.0%
- % T/C on day 11 (HT1080 tumors; PM01183 0.09 mg/kg): 42.7%
- % T/C on day 14 (HT1080 tumors; PM01183 0.09 mg/kg): 45.8%
- % T/C on day 16 (HT1080 tumors; PM01183 0.09 mg/kg): 56.4%
- % T/C (median total diameter, tumor+leg) on day 9 (HT1080 tumors; [1]): 36.0%
- % T/C (median total diameter, tumor+leg) on day 11 (HT1080 tumors; [1]): 30.2%
- % T/C (median total diameter, tumor+leg) on day 14 (HT1080 tumors; [1]): 33.0%
- % T/C (median total diameter, tumor+leg) on day 16 (HT1080 tumors; [1]): 41.9%
- % T/C on day 0 (HT1080 tumors; PM01183 0.135 mg/kg): 100%
- % T/C on day 2 (HT1080 tumors; PM01183 0.135 mg/kg): 63.0%
- % T/C on day 4 (HT1080 tumors; PM01183 0.135 mg/kg): 62.9%
- % T/C on day 7 (HT1080 tumors; PM01183 0.135 mg/kg): 48.1%
- % T/C on day 9 (HT1080 tumors; PM01183 0.135 mg/kg): 36.0%
- % T/C on day 11 (HT1080 tumors; PM01183 0.135 mg/kg): 30.2%
- % T/C on day 14 (HT1080 tumors; PM01183 0.135 mg/kg): 33.0%
- % T/C on day 16 (HT1080 tumors; PM01183 0.135 mg/kg): 41.9%
- % T/C (median total diameter, tumor+leg) on day 9 (HT1080 tumors; PM01183 0.18 mg/kg iv days 0,7): 26.7%
- % T/C (median total diameter, tumor+leg) on day 11 (HT1080 tumors; PM01183 0.18 mg/kg iv days 0,7): 11.5%
- % T/C (median total diameter, tumor+leg) on day 14 (HT1080 tumors; PM01183 0.18 mg/kg iv days 0,7): 21.2%
- % T/C (median total diameter, tumor+leg) on day 16 (HT1080 tumors; PM01183 0.18 mg/kg iv days 0,7): 30.6%
- % T/C on day 0 (HT1080 tumors; PM01183 0.18 mg/kg): 100%
- % T/C on day 2 (HT1080 tumors; PM01183 0.18 mg/kg): 59.3%
- % T/C on day 4 (HT1080 tumors; PM01183 0.18 mg/kg): 40.0%
- % T/C on day 7 (HT1080 tumors; PM01183 0.18 mg/kg): 26.9%
- % T/C on day 9 (HT1080 tumors; PM01183 0.18 mg/kg): 26.7%
- % T/C on day 11 (HT1080 tumors; PM01183 0.18 mg/kg): 11.5%
- % T/C on day 14 (HT1080 tumors; PM01183 0.18 mg/kg): 21.2%
- % T/C on day 16 (HT1080 tumors; PM01183 0.18 mg/kg): 30.6%
- % T/C on day 0 (HGC-27 tumors; [2]): 99.9%
- % T/C on day 2 (HGC-27 tumors; [2]): 84.3%
- % T/C on day 5 (HGC-27 tumors; [2]): 103.2%
- % T/C on day 7 (HGC-27 tumors; [2]): 104.6%
- % T/C on day 9 (HGC-27 tumors; [2]): 103.5%
- % T/C on day 12 (HGC-27 tumors; [2]): 101.6%
- % T/C on day 14 (HGC-27 tumors; [2]): 85.0%
- % T/C on day 0 (HGC-27 tumors; [3]): 98.9%
- % T/C on day 3 (HGC-27 tumors; [3]): 85.9%
- % T/C on day 5 (HGC-27 tumors; [3]): 83.1%
- % T/C on day 7 (HGC-27 tumors; [3]): 92.1%
- % T/C on day 10 (HGC-27 tumors; [3]): 76.4%
- % T/C on day 12 (HGC-27 tumors; [3]): 81.6%
- % T/C on day 14 (HGC-27 tumors; [3]): 88.5%
- % T/C on day 0 (HGC-27 tumors; [4]): 100.6%
- % T/C on day 2 (HGC-27 tumors; [4]): 90.5%
- % T/C on day 5 (HGC-27 tumors; [4]): 87.6%
- % T/C on day 7 (HGC-27 tumors; [4]): 83.4%
- % T/C on day 9 (HGC-27 tumors; [4]): 82.6%
- % T/C on day 12 (HGC-27 tumors; [4]): 76.7%
- % T/C on day 14 (HGC-27 tumors; [4]): 67.7%
- % T/C on day 0 (HGC-27 tumors; [5]): 98.6%
- % T/C on day 3 (HGC-27 tumors; [5]): 67.5%
- % T/C on day 5 (HGC-27 tumors; [5]): 67.9%
- % T/C on day 7 (HGC-27 tumors; [5]): 66.1%
- % T/C on day 10 (HGC-27 tumors; [5]): 70.2%
- % T/C on day 12 (HGC-27 tumors; [5]): 60.3%
- % T/C on day 14 (HGC-27 tumors; [5]): 65.0%
- % T/C on day 0 (HGC-27 tumors; [6]): 100.2%
- % T/C on day 2 (HGC-27 tumors; [6]): 81.5%
- % T/C on day 5 (HGC-27 tumors; [6]): 58.7%
- % T/C on day 7 (HGC-27 tumors; [6]): 61.4%
- % T/C on day 9 (HGC-27 tumors; [6]): 60.2%
- % T/C on day 12 (HGC-27 tumors; [6]): 54.6%
- % T/C on day 14 (HGC-27 tumors; [6]): 55.1%
- % T/C on day 0 (HGC-27 tumors; [7]): 97.9%
- % T/C on day 3 (HGC-27 tumors; [7]): 71.6%
- % T/C on day 5 (HGC-27 tumors; [7]): 59.9%
- % T/C on day 7 (HGC-27 tumors; [7]): 47.8%
- % T/C on day 10 (HGC-27 tumors; [7]): 39.3%
- % T/C on day 12 (HGC-27 tumors; [7]): 37.1%
- % T/C on day 14 (HGC-27 tumors; [7]): 38.3%
- % T/C on day 0 (HGC-27 tumors; [8]): 99.6%
- % T/C on day 2 (HGC-27 tumors; [8]): 78.6%
- % T/C on day 5 (HGC-27 tumors; [8]): 50.9%
- % T/C on day 7 (HGC-27 tumors; [8]): 43.3%
- % T/C on day 9 (HGC-27 tumors; [8]): 41.0%
- % T/C on day 12 (HGC-27 tumors; [8]): 33.0%
- % T/C on day 14 (HGC-27 tumors; [8]): 29.2%
- % T/C on day 0 (HGC-27 tumors; [9]): 99.6%
- % T/C on day 3 (HGC-27 tumors; [9]): 65.9%
- % T/C on day 5 (HGC-27 tumors; [9]): 55.6%
- % T/C on day 7 (HGC-27 tumors; [9]): 38.7%
- % T/C on day 10 (HGC-27 tumors; [9]): 33.5%
- % T/C on day 12 (HGC-27 tumors; [9]): 24.3%
- % T/C on day 14 (HGC-27 tumors; [9]): 24.3%
